Measured values: patent publication US20250179103A1, “6-OXODECAHYDROPYRROLO[1,2-A][1,5]DIAZOCINE AND 6-OXODECAHYDRO-4H-PYRROLO[2,1-D][1,5]THIAZOCINE DERIVATIVES AS STAT3 AND STAT6 MODULATORS FOR THE TREATMENT OF CANCER AND INFLAMMATORY CONDITIONS” (Recludix Pharma, Inc., priority 2022, published 2025)

Legend:
[1] = molecular target: T1, Recombinant STAT3 protein (STAT3(G127-I722)) (Homo sapiens, UniProt P40763); test: STAT3 Fluorescence Polarization (FP) Assay; type: binding; settings: STAT3(G127-I722) 25 nM, probe 5-FAM-GpYLPQTV-NH2 2 nM, 45-minute incubation
T1 construct: Recombinant STAT3 protein (STAT3(G127-I722))
T1 sequence (P40763 127-722): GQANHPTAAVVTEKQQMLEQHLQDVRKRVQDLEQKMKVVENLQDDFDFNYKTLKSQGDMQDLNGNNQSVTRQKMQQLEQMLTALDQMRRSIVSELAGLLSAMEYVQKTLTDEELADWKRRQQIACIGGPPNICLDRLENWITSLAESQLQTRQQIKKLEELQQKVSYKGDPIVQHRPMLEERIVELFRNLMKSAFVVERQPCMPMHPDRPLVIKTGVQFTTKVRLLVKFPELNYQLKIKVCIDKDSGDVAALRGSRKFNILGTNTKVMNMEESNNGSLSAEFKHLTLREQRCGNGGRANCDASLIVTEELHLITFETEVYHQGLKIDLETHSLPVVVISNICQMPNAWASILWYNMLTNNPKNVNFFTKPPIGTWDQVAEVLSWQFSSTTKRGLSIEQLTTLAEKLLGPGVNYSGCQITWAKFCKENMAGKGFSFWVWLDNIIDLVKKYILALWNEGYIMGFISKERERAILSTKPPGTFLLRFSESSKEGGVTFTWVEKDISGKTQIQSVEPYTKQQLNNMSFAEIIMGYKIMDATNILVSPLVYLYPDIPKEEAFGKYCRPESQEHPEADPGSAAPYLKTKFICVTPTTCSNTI
How it was run: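 STAT3(G127-I722), 25 nM, was mixed with 2 nM 5-FAM-GpYLPQTV-NH2 probe in HEPES pH 7.4 buffer with 1% DMSO and serially diluted compound. FP (mP) was read after 45 min at room temperature. IC50 came from nonlinear regression.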

[2] = molecular target: T2, Recombinant STAT6 protein (STAT6(W123-T658)) (Homo sapiens, UniProt P42226); test: STAT6 Fluorescence Polarization (FP) Assay; type: binding; settings: STAT6(W123-T658) 250 nM, probe 5-FAM-ApYKPFQDLI-NH2 2 nM, 45-minute incubation
T2 construct: Recombinant STAT6 protein (STAT6(W123-T658))
T2 sequence (P42226 123-658): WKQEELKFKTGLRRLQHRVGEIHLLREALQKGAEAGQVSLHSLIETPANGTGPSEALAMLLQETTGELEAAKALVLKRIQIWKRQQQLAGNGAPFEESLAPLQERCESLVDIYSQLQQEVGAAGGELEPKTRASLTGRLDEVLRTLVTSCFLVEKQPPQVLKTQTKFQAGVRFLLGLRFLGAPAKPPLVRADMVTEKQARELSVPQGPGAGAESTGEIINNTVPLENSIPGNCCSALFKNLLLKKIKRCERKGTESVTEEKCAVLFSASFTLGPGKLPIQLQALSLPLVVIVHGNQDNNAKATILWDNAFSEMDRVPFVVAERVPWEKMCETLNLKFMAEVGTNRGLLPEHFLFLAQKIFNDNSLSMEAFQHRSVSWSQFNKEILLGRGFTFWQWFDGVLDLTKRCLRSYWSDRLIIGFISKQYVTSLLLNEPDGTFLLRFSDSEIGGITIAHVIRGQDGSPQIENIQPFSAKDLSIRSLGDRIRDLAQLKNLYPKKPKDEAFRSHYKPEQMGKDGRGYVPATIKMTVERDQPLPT
How it was run: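 Displacement of a fluorescent phosphotyrosine peptide (5-FAM-ApYKPFQDLI-NH2, 2 nM) from STAT6(W123-T658) (250 nM), 1% DMSO, pH 7.4 HEPES buffer. After 45 min at room temperature, polarization (mP) was plotted versus log compound concentration and fitted by nonlinear regression to give IC50.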

Compound | IC50 [1] [µM] | IC50 [2] [µM]
CC(=O)N1CC[C@H]2CC[C@@H](C(=O)N(C)c3ccccc3)N2C(=O)[C@@H](NC(=O)c2cc3cc(C(C)(C)P(=O)(O)O)ccc3s2)C1 [Compound 21, (2-(2-(((5S,8S,10aR)-3-acetyl-8-(methyl(phenyl)carbamoyl)-6-oxodecahydropyrrolo[1,2-a][1,5]diazocin-5-yl)carbamoyl)benzo[b]thiophen-5-yl)propan-2-yl)phospnoic aicd] | > 10 | > 30
CC(=O)N1CC[C@H]2CC[C@@H](C(=O)N3C[C@@H](C#N)C[C@@H]3Cc3ccccc3)N2C(=O)[C@@H](NC(=O)c2cc3cc(C(F)(F)P(=O)(O)O)ccc3s2)C1 [Compound 42, ((2-(((5S,8S,10aR)-3-acetyl-8-((2R,4S)-2-benzyl-4-cyanopyrrolidine-1-carbonyl)-6-oxodecahydropyrrolo[1,2-a][1,5]diazocin-5-yl)carbamoyl)benzo[b]thiophen-5-yl)difluoromethyl)phosphonic acid] | 1 to 10 | 0.3 to 3
CNC(=O)C[C@@H](Cc1ccc(OC)cc1)NC(=O)[C@@H]1CC[C@@H]2CCN(C(=O)c3n[nH]c4ccc(C)cc34)C[C@H](NC(=O)c3ccc4ccc(C(F)(F)P(=O)(O)O)cc4c3)C(=O)N21 [Compound 229, (difluoro(7-(((5S,8S,10aR)-8-(((R)-1-(4-methoxyphenyl)-4-(methylamino)-4-oxobutan-2-yl)carbamoyl)-3-(5-methyl-1H-indazole-3-carbonyl)-6-oxodecahydropyrrolo[1,2-a][1,5]diazocin-5-yl)carbamoyl)naphthalen-2-yl)methyl)phosphonic acid] | 1 to 10 | ≤ 0.3
CC(=O)N1CC[C@H]2CC[C@@H](C(=O)N3CCCC3Cc3ccc(F)cc3)N2C(=O)[C@@H](NC(=O)c2cc3cc(C(F)(F)P(=O)(O)O)ccc3[nH]2)C1 (stereo partly drawn) [Compound 130, ((2-(((5S,8S,10aR)-3-acetyl-8-(2-(4-fluorobenzyl)pyrrolidine-1-carbonyl)-6-oxodecahydropyrrolo[1,2-a][1,5]diazocin-5-yl)carbamoyl)-1H-indol-5-yl)difluoromethyl)phosphonic acid] | 1 to 10 | 0.3 to 3
CC(=O)N1CC[C@H]2CC[C@@H](C(=O)N3CC(c4cn[nH]c4)[C@@H](C#N)C3)N2C(=O)[C@@H](NC(=O)c2cc3cc(C(F)(F)P(=O)(O)O)ccc3s2)C1 (relative stereo) [Compound 141, ((2-(((5S,8S,10aR)-3-acetyl-8-((rel-trans)-3-cyano-4-(1H-pyrazol-4-yl)pyrrolidine-1-carbonyl)-6-oxodecahydropyrrolo[1,2-a][1,5]diazocin-5-yl)carbamoyl)benzo[b]thiophen-5-yl)difluoromethyl)phosphonic acid] | 1 to 10 | 0.3 to 3
CC(=O)N1CC[C@H]2CC[C@@H](C(=O)N3CC(C(=O)N4CCN(C)CC4)C3)N2C(=O)[C@@H](NC(=O)c2cc3cc(C(F)(F)P(=O)(O)O)ccc3s2)C1 [Compound 195, ((2-(((5S,8S,10aR)-3-acetyl-8-(3-(4-methylpiperazine-1-carbonyl)azetidine-1-carbonyl)-6-oxodecahydropyrrolo[1,2-a][1,5]diazocin-5-yl)carbamoyl)benzo[b]thiophen-5-yl)difluoromethyl)phosphonic acid] | 1 to 10 | 0.3 to 3
CC(=O)N1CC[C@H]2CC[C@@H](C(=O)N3CCN(C4CC4)C(C#N)C3)N2C(=O)[C@@H](NC(=O)c2cc3cc(C(F)(F)P(=O)(O)O)ccc3s2)C1 (stereo partly drawn) [Compound 63, ((2-(((5S,8S,10aR)-3-acetyl-8-(3-cyano-4-cyclopropylpiperazine-1-carbonyl)-6-oxodecahydropyrrolo[1,2-a][1,5]diazocin-5-yl)carbamoyl)benzo[b]thiophen-5-yl)difluoromethyl)phosphonic acid] | 1 to 10 | 0.3 to 3
CC(=O)N1CC[C@H]2CC[C@@H](C(=O)Nc3ccccc3)N2C(=O)[C@@H](NC(=O)c2cc3cc(C(F)(F)P(=O)(O)O)ccc3s2)C1 [Compound 181, ((2-(((5S,8S,10aR)-3-acetyl-6-oxo-8-(phenylcarbamoyl)decahydropyrrolo[1,2-a][1,5]diazocin-5-yl)carbamoyl)benzo[b]thiophen-5-yl)difluoromethyl)phosphonic acid] | 1 to 10 | 0.3 to 3
CC(=O)N1CC[C@H]2CC[C@@H](C(=O)N3CC[C@@H](c4ccccc4)[C@H](C#N)C3)N2C(=O)[C@@H](NC(=O)c2cc3cc(C(F)(F)P(=O)(O)O)ccc3s2)C1 (relative stereo) [Compound 154, ((2-(((5S,8S,10aR)-3-acetyl-8-((rel-trans)-3-cyano-4-phenylpiperidine-1-carbonyl)-6-oxodecahydropyrrolo[1,2-a][1,5]diazocin-5-yl)carbamoyl)benzo[b]thiophen-5-yl)difluoromethyl)phosphonic acid] | 1 to 10 | 0.3 to 3

Next, values leading:

IC50 [1] [µM] | IC50 [2] [µM] | Compound
1 to 10 | 0.3 to 3 | CCC(C)(C)c1ccc(N(C)C(=O)[C@@H]2CC[C@@H]3CCN(C(C)=O)C[C@H](NC(=O)c4cc5cc(C(F)(F)P(=O)(O)O)ccc5s4)C(=O)N32)cc1 [Compound 159, ((2-(((5S,8S,10aR)-3-acetyl-8-(methyl(4-(tert-pentyl)phenyl)carbamoyl)-6-oxodecahydropyrrolo[1,2-a][1,5]diazocin-5-yl)carbamoyl)benzo[b]thiophen-5-yl)difluoromethyl)phosphonic acid]
1 to 10 | 3 to 30 | CC(=O)N1CC[C@H]2CC[C@@H](C(=O)N(C)c3ccc(C#N)cc3)N2C(=O)[C@@H](NC(=O)c2cc3cc(C(F)(F)P(=O)(O)O)ccc3s2)C1 [Compound 123, ((2-(((5S,8S,10aR)-3-acetyl-8-((4-cyanophenyl)(methyl)carbamoyl)-6-oxodecahydropyrrolo[1,2-a][1,5]diazocin-5-yl)carbamoyl)benzo[b]thiophen-5-yl)difluoromethyl)phosphonic acid]
1 to 10 | ≤ 0.3 | Cc1ccc2onc(C(=O)N3CC[C@H]4CC[C@@H](C(=O)N5C[C@H](c6cc[nH]c(=O)c6)CC56CC6)N4C(=O)[C@@H](NC(=O)c4ccc5ccc(C(F)(F)P(=O)(O)O)cc5c4)C3)c2c1 [Compound 381, (difluoro(7-(((5S,8S, 10aR)-3-(5-methylbenzo[d]isoxazole-3-carbonyl)-6-oxo-8-((S)-6-(2-oxo-1,2-dihydropyridin-4-yl)-4-azaspiro[2.4]heptane-4-carbonyl)decahydropyrrolo [1,2-a][1,5]diazocin-5-yl)carbamoyl)naphthalen-2-yl)methyl)phosphonic acid]
0.1 to 1 | ≤ 0.3 | O=C(N[C@H]1CN(C(=O)CCc2ccccc2)CC[C@H]2CC[C@@H](C(=O)Nc3ccc(-c4ccccc4)cc3)N2C1=O)c1cc2cc(C(F)(F)P(=O)(O)O)ccc2[nH]1 [Compound 215, ((2-(((5S,8S,10aR)-8-([1,1′-biphenyl]-4-ylcarbamoyl)-6-oxo-3-(3-phenylpropanoyl)decahydropyrrolo[1,2a][1,5]diazocin-5-yl)carbamoyl)-1H-indol-5-yl)difluoromethyl)phosphonic acid]
≤ 0.1 | 3 to 30 | N#Cc1cccc(C2CN(C(=O)[C@@H]3CC[C@@H]4CCN(Cc5ncccn5)C[C@H](NC(=O)c5cc6cc(C(F)P(=O)(O)O)ccc6s5)C(=O)N43)C2)n1 (stereo partly drawn) [Compound 398, ((2-(((5S,8S,10aR)-8-(3-(6-cyanopyridin-2-yl)azetidine-1-carbonyl)-6-oxo-3-(pyrimidin-2-ylmethyl)decahydropyrrolo[1,2-a][1,5]diazocin-5-yl)carbamoyl)benzo[b]thiophen-5-yl)fluoromethyl)phosphonic acid]
≤ 0.1 | 3 to 30 | CN1CCN(c2ccc(C(=O)N3CC[C@H]4CC[C@@H](C(=O)N5CC(c6cccnc6)C5)N4C(=O)[C@@H](NC(=O)c4cc5cc(C(F)(F)P(=O)(O)O)ccc5s4)C3)c(Cl)c2)CC1 [Compound 403, ((2-(((5S,8S,10aR)-3-(2-chloro-4-(4-methylpiperazin-1-yl)benzoyl)-6-oxo-8-(3-(pyridin-3-yl)azetidine-1-carbonyl)decahydropyrrolo[1,2-a][1,5]diazocin-5-yl)carbamoyl)benzo[b]thiophen-5-yl)difluoromethyl) phophonic acid]
0.1 to 1 | 0.3 to 3 | CC(=O)N1CC[C@H]2CC[C@@H](C(=O)N3C[C@@H]4[C@H](C3)[C@H]3CS(=O)(=O)C[C@@H]43)N2C(=O)[C@@H](NC(=O)c2cc3cc(C(F)(F)P(=O)(O)O)ccc3s2)C1 [Compound 79, ((2-(((5S,8S,10aR)-3-acetyl-8-((3aR,3bS,6aR,6bS)-2,2-dioxidooctahydro-1H-thieno[3′,4′:3,4]cyclobuta[1,2-c]pyrrole-5-carbonyl)-6-oxodecahydropyrrolo[1,2-a][1,5]diazocin-5-yl)carbamoyl)benzo[b]thiophen-5-yl)difluoromethyl)phosphonic acid]
